Assay results from US20250313572A1, “MACROCYCLIC MCL-1 INHIBITORS AND METHODS OF USE” (AbbVie Inc., priority 2017, published 2025).
Where two headings read alike, the source gives them in different places.

Key:
[1] = target: GST-MCL-1 (Homo sapiens, UniProt Q07820); test: TR-FRET MCL-1 binding assay (competition with probe F-Bak)
Experimental: Tb-anti-GST antibody was purchased from Invitrogen (Catalog No. PV4216).
For the assay, an acoustic dispenser was used to prepare dilution series from 10 mM test compounds in 100% DMSO and directly transfer 160 nL into low volume 384-well assay plates. 8 μL of a protein/probe/antibody mix was then added to each well resulting in final concentrations listed below: • Test compound: 11 three-fold dilutions beginning at 25 μM
The samples were then mixed on a shaker for 1 minute and incubated for an additional 2 hours at room temperature. For each assay plate, a probe/antibody and protein/antibody/probe mixture were included as a negative and a positive control, respectively. Fluorescence was measured on the Envision (Perkin Elmer) using a 340/35 nm excitation filter and 520/525 (F-Bak) and 495/510 nm (Tb-labeled anti-his antibody) emission filters. […] The TR-FRET assay can be performed in the presence of varying concentrations of human serum (HS) or fetal bovine serum (FBS). Compounds were tested both without HS and in the presence of 10% HS.

[2] = tested on: AMO-1 human multiple myeloma tumor cell line; test: AMO-1 cell viability assay (CellTiter-Glo, 24 hours); type: cell-based
[3] = tested on: NCI-H929 human multiple myeloma tumor cell line; test: NCI-H929 cell viability assay (CellTiter-Glo, 24 hours); type: cell-based
[4] = MCL-1 Binding Ki (nM, 10% HS), in the presence of 10% HS (human serum)
[5] = without HS, read-out: MCL-1 Binding Ki
[6] = Homo sapiens, AMO1, 24 h, read-out: AMO-1 Viability IC50 (μM, 10% FBS), 10% FBS, 24 hours of compound treatment
[7] = Homo sapiens, NCI-H929, 24 h, read-out: H929 Viability IC50 (μM, 10% FBS), 10% FBS, 24 hours of compound treatment
[8] = read-out: AMO-1 Viability IC50 (μM, 10% FBS), 10% FBS, 24 hours of compound treatment
[9] = read-out: H929 Viability IC50 (μM, 10% FBS), 10% FBS, 24 hours of compound treatment

GST-MCL-1, sequence (Q07820 whole entry): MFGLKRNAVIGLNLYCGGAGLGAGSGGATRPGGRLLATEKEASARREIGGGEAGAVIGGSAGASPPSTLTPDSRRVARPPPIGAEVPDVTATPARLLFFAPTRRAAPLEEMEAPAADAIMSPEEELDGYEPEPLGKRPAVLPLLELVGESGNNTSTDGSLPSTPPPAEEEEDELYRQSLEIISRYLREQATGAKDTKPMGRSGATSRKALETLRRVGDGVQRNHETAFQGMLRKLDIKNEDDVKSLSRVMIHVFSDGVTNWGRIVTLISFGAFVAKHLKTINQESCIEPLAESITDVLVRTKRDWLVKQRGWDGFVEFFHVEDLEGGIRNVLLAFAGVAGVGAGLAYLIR

Compound | Ki [1, 4] | Ki [1, 5] | IC50 [2, 6] | IC50 [3, 7] | IC50 [2, 8] | IC50 [3, 9]
COCCOCCOCCOCCOC[C@H]1CCCC[C@@H]1c1nccc(COc2ccc3cc2C[C@H](C(=O)O)Oc2ncnc4sc(-c5ccc(F)cc5)c(c24)-c2c(C)c(Cl)c(c(Cl)c2C)O[C@H](CN2CCN(C)CC2)CO3)n1 (relative stereo) [Example 124, (7R,16R)-19,23-dichloro-1-(4-fluorophenyl)-20,22-dimethyl-16-[(4-methylpiperazin-1-yl)methyl]-10-({2-[(1S*,2S*)-2-(2,5,8,11,14-pentaoxapentadecan-1-yl)cyclohexyl]pyrimidin-4-yl}methoxy)-7,8,15,16-tetrahydro-18,21-etheno-13,9-(metheno)-6,14,17-trioxa-2-thia-3,5-diazacyclononadeca[1,2,3-cd]indene-7-carboxylic Acid] | 0.145 nM | 0.012 nM | 0.000355 µM | 0.000818 µM | – | –
COCCOCCOC[C@@]1(F)CC=C(c2nccc(COc3ccc4cc3C[C@H](C(=O)O)Oc3ncnc5sc(C6=CCCC6)c(c35)-c3c(C)c(Cl)c(c(Cl)c3C)O[C@H](CN3CCN(C)CC3)CO4)n2)CC1 (relative stereo) [Example 135, (7R,16R)-19,23-dichloro-1-(cyclopent-1-en-1-yl)-10-({2-[(4S*)-4-fluoro-4-{[2-(2-methoxyethoxy)ethoxy]methyl}cyclohex-1-en-1-yl]pyrimidin-4-yl}methoxy)-20,22-dimethyl-16-[(4-methylpiperazin-1-yl)methyl]-7,8,15,16-tetrahydro-18,21-etheno-13,9-(metheno)-6,14,17-trioxa-2-thia-3,5-diazacyclononadeca[1,2,3-cd]indene-7-carboxylic Acid] | 0.489 nM | 0.029 nM | 0.000191 µM | 0.000591 µM | – | –
Cc1c(Cl)c2c(Cl)c(C)c1-c1c(-c3ccc(F)cc3)sc3ncnc(c13)O[C@@H](C(=O)O)Cc1cc(ccc1OCc1ccnc(C3=CCC(CC(=O)O)CC3)n1)OC[C@@H](CN1CCN(C)CC1)O2 (single isomer, unassigned) [Example 35, (7R,16R)-10-({2-[(4S*)-4-(carboxymethyl)cyclohex-1-en-1-yl]pyrimidin-4-yl}methoxy)-19,23-dichloro-1-(4-fluorophenyl)-20,22-dimethyl-16-[(4-methylpiperazin-1-yl)methyl]-7,8,15,16-tetrahydro-18,21-etheno-13,9-(metheno)-6,14,17-trioxa-2-thia-3,5-diazacyclononadeca[1,2,3-cd]indene-7-carboxylic Acid] | 0.113 nM | 0.007 nM | 0.01 µM | 0.017 µM | – | –
Cc1c(Cl)c2c(Cl)c(C)c1-c1c(-c3ccc(F)cc3)sc3ncnc(c13)O[C@@H](C(=O)O)Cc1cc(ccc1OCc1ccnc(C3=CCC(CC(=O)O)CC3)n1)OC[C@@H](CN1CCN(C)CC1)O2 (single isomer, unassigned) [Example 37, (7R,16R)-10-({2-[(4R*)-4-(carboxymethyl)cyclohex-1-en-1-yl]pyrimidin-4-yl}methoxy)-19,23-dichloro-1-(4-fluorophenyl)-20,22-dimethyl-16-[(4-methylpiperazin-1-yl)methyl]-7,8,15,16-tetrahydro-18,21-etheno-13,9-(metheno)-6,14,17-trioxa-2-thia-3,5-diazacyclononadeca[1,2,3-cd]indene-7-carboxylic Acid] | 0.124 nM | 0.009 nM | – | – | 0.0096 µM | 0.0167 µM
COCCOCCOCCOCCOCCOCC1(C)CC=C(c2nccc(COc3ccc4cc3C[C@H](C(=O)O)Oc3ncnc5sc(-c6ccc(F)cc6)c(c35)-c3c(C)c(Cl)c(c(Cl)c3C)O[C@H](CN3CCN(C)CC3)CO4)n2)CC1 (single isomer, unassigned) [Example 85, (7R,16R)-19,23-dichloro-1-(4-fluorophenyl)-10-({2-[(4S*)-4-(2,5,8,11,14,17-hexaoxaoctadecan-1-yl)-4-methylcyclohex-1-en-1-yl]pyrimidin-4-yl}methoxy)-20,22-dimethyl-16-[(4-methylpiperazin-1-yl)methyl]-7,8,15,16-tetrahydro-18,21-etheno-13,9-(metheno)-6,14,17-trioxa-2-thia-3,5-diazacyclononadeca[1,2,3-cd]indene-7-carboxylic Acid] | 0.191 nM | 0.029 nM | – | – | 0.000198 µM | 0.000485 µM
COCCOCCOCC1(F)CC=C(c2nccc(COc3ccc4cc3C[C@H](C(=O)O)Oc3ncnc5sc(-c6ccc(F)cc6)c(c35)-c3c(C)c(Cl)c(c(Cl)c3C)O[C@H](CN3CCN(C)CC3)CO4)n2)CC1 (single isomer, unassigned) [Example 86, (7R,16R)-19,23-dichloro-10-({2-[(4S*)-4-fluoro-4-{[2-(2-methoxyethoxy)ethoxy]methyl}cyclohex-1-en-1-yl]pyrimidin-4-yl}methoxy)-1-(4-fluorophenyl)-20,22-dimethyl-16-[(4-methylpiperazin-1-yl)methyl]-7,8,15,16-tetrahydro-18,21-etheno-13,9-(metheno)-6,14,17-trioxa-2-thia-3,5-diazacyclononadeca[1,2,3-cd]indene-7-carboxylic Acid] | 0.102 nM | 0.008 nM | 0.000105 µM | 0.000258 µM | – | –
COCCOCCOCCOCCOCCOCC1(F)CC=C(c2nccc(COc3ccc4cc3C[C@H](C(=O)O)Oc3ncnc5sc(-c6ccc(F)cc6)c(c35)-c3c(C)c(Cl)c(c(Cl)c3C)O[C@H](CN3CCN(C)CC3)CO4)n2)CC1 (single isomer, unassigned) [Example 97, (7R,16R)-19,23-dichloro-10-({2-[(4S*)-4-fluoro-4-(2,5,8,11,14,17-hexaoxaoctadecan-1-yl)cyclohex-1-en-1-yl]pyrimidin-4-yl}methoxy)-1-(4-fluorophenyl)-20,22-dimethyl-16-[(4-methylpiperazin-1-yl)methyl]-7,8,15,16-tetrahydro-18,21-etheno-13,9-(metheno)-6,14,17-trioxa-2-thia-3,5-diazacyclononadeca[1,2,3-cd]indene-7-carboxylic Acid] | 0.137 nM | 0.016 nM | 0.0006 µM | 0.000482 µM | – | –
COCCOCCOCCOCCOCCOCC1(F)CC=C(c2nccc(COc3ccc4cc3C[C@H](C(=O)O)Oc3ncnc5sc(-c6ccc(F)cc6)c(c35)-c3c(C)c(Cl)c(c(Cl)c3C)O[C@H](CN3CCN(C)CC3)CO4)n2)CC1 (single isomer, unassigned) [Example 100, (7R,16R)-19,23-dichloro-10-({2-[(4R*)-4-fluoro-4-(2,5,8,11,14,17-hexaoxaoctadecan-1-yl)cyclohex-1-en-1-yl]pyrimidin-4-yl}methoxy)-1-(4-fluorophenyl)-20,22-dimethyl-16-[(4-methylpiperazin-1-yl)methyl]-7,8,15,16-tetrahydro-18,21-etheno-13,9-(metheno)-6,14,17-trioxa-2-thia-3,5-diazacyclononadeca[1,2,3-cd]indene-7-carboxylic Acid] | 0.176 nM | 0.017 nM | – | – | 0.00033 µM | 0.000547 µM
COCCOCCOCCOCC1(F)CC=C(c2nccc(COc3ccc4cc3C[C@H](C(=O)O)Oc3ncnc5sc(-c6ccc(F)cc6)c(c35)-c3c(C)c(Cl)c(c(Cl)c3C)O[C@H](CN3CCN(C)CC3)CO4)n2)CC1 (single isomer, unassigned) [Example 101, (7R,16R)-19,23-dichloro-1-(4-fluorophenyl)-10-({2-[(4S*)-4-fluoro-4-(2,5,8,11-tetraoxadodecan-1-yl)cyclohex-1-en-1-yl]pyrimidin-4-yl}methoxy)-20,22-dimethyl-16-[(4-methylpiperazin-1-yl)methyl]-7,8,15,16-tetrahydro-18,21-etheno-13,9-(metheno)-6,14,17-trioxa-2-thia-3,5-diazacyclononadeca[1,2,3-cd]indene-7-carboxylic Acid] | 0.235 nM | 0.02 nM | 0.000195 µM | 0.000298 µM | – | –
COCCOCCOCCOCCOCC1(F)CC=C(c2nccc(COc3ccc4cc3C[C@H](C(=O)O)Oc3ncnc5sc(-c6ccc(F)cc6)c(c35)-c3c(C)c(Cl)c(c(Cl)c3C)O[C@H](CN3CCN(C)CC3)CO4)n2)CC1 (single isomer, unassigned) [Example 106, (7R,16R)-19,23-dichloro-10-({2-[(4R*)-4-fluoro-4-(2,5,8,11,14-pentaoxapentadecan-1-yl)cyclohex-1-en-1-yl]pyrimidin-4-yl}methoxy)-1-(4-fluorophenyl)-20,22-dimethyl-16-[(4-methylpiperazin-1-yl)methyl]-7,8,15,16-tetrahydro-18,21-etheno-13,9-(metheno)-6,14,17-trioxa-2-thia-3,5-diazacyclononadeca[1,2,3-cd]indene-7-carboxylic Acid] | 0.166 nM | 0.036 nM | 0.000216 µM | 0.000288 µM | – | –
